Laboratory results published in ChEMBL document CHEMBL1151947, “Synthesis, potency, and in vivo evaluation of 2-piperazin-1-ylquinoline analogues as dual serotonin reuptake inhibitors and serotonin 5-HT1A receptor antagonists” (J Med Chem, 2009).

Key:
[1] = molecular target: T1, 5-hydroxytryptamine receptor 1A (Homo sapiens, UniProt P08908)
T1 sequence (P08908 whole entry): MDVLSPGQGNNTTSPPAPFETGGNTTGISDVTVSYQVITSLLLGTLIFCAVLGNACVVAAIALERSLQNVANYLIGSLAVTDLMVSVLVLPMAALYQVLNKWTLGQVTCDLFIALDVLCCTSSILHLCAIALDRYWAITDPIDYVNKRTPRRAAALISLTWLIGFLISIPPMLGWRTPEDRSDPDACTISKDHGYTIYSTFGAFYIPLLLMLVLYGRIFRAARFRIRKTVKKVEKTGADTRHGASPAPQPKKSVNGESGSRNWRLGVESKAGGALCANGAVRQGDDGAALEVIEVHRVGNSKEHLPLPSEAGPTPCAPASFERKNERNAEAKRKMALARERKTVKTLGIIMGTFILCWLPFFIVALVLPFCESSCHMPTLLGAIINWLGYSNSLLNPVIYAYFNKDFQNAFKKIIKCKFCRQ
Description: Antagonist activity at human 5HT1A receptor expressed in CHO cells assessed as stimulation of [35S]GTPgammaS binding

[2] = molecular target: Sodium-dependent serotonin transporter (Rattus norvegicus, UniProt P31652)
Description: Displacement of [3H]paroxetine from 5HT transporter in rat cortical membrane

[3] = molecular target: T2, 5-hydroxytryptamine receptor 1A (Homo sapiens) (UniProt P08908); experiment: Antagonist activity at human 5HT1A receptor expressed in CHO cells assessed as inhibition of [35S]GTPgammaS binding relative to control; type: functional, cell-based
T2 sequence (whole entry): T1 sequence (P08908 whole entry)

[4] = molecular target: T1, 5-hydroxytryptamine receptor 1A; experiment: biochemical
Description: Displacement of [3H]8-OH-DPAT from human 5HT1A receptor expressed in CHO cells

[5] = molecular target: Sodium-dependent serotonin transporter (Homo sapiens, UniProt P31645); experiment: Antagonist activity at human 5HT transporter expressed in staurosporine treated human JAR cells; type: functional, cell-based
[6] = molecular target: Sodium-dependent serotonin transporter (Rattus norvegicus) (UniProt P31652); experiment: Ratio Ki for drug to Ki for (2S)-8-Methyl-2-{[4-(6-nitroquinolin-2-yl)piperazin-1-yl]- methyl}-2,3-dihydro[1,4]dioxino[2,3-f ]quinoline against 5HT transporter in rat cortical membrane; type: cell membranes
Sequence of Sodium-dependent serotonin transporter (Rattus norvegicus) (P31652 whole entry): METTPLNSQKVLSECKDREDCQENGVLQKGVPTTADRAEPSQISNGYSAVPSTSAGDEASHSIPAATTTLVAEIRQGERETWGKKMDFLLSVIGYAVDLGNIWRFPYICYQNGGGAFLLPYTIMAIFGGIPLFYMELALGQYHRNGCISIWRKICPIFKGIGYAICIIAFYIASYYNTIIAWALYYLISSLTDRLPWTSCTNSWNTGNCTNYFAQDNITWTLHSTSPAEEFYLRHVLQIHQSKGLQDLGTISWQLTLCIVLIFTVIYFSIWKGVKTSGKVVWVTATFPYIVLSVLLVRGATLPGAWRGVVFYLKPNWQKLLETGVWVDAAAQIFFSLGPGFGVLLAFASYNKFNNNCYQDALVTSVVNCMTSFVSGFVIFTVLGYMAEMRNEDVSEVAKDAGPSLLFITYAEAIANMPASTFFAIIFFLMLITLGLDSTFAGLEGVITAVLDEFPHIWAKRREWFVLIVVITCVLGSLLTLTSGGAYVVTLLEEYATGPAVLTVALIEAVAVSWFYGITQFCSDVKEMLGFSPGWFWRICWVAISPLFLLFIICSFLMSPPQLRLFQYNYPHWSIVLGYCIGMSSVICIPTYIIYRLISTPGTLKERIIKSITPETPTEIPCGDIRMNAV

Sequence of Sodium-dependent serotonin transporter (Rattus norvegicus, UniProt P31652) (P31652 whole entry): as above
Sequence of Sodium-dependent serotonin transporter (Homo sapiens, UniProt P31645) (P31645 whole entry): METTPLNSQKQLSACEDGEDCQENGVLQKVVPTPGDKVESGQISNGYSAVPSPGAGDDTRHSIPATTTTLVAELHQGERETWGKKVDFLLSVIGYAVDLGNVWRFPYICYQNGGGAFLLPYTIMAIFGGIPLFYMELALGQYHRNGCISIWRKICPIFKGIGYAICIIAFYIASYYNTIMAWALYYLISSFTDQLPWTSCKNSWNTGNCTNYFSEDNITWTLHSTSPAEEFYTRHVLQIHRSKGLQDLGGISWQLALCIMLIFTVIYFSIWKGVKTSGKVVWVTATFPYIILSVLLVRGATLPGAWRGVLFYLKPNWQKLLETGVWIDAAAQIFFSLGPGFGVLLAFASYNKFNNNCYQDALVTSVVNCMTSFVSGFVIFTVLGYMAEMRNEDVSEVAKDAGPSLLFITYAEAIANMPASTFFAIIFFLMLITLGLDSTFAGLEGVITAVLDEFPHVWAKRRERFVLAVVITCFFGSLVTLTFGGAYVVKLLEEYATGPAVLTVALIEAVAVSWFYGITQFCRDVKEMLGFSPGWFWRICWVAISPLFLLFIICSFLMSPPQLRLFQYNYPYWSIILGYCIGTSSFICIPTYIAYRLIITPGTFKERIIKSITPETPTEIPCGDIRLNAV

| Compound | IC50 [1] | Ki [2] | Imax [3] | Ki [4] | Ratio Ki [6] | IC50 [5] |
| --- | --- | --- | --- | --- | --- | --- |
| Cc1ccc2c3c(ccc2n1)OC[C@H](CN1CCN(c2ccc4ccccc4n2)CC1)O3 | 4870 nM | 75 nM | 100% | – | – | – |
| Cc1ccc2c3c(ccc2n1)OC[C@H](CN1CCN(c2ccc4cc(OC(F)(F)F)ccc4n2)CC1)O3 | 588 nM | 148 nM | 85% | 172 nM | – | – |
| Cc1ccc2c3c(ccc2n1)OC[C@H](CN1CC=C(c2c[nH]c4ccccc24)CC1)O3 | 56.7 nM | 2.34 nM | 98.3% | 3.02 nM | – | 145 nM |
| Cc1ccc2c3c(ccc2n1)OC[C@H](CN1CCN(c2ccc4cc(F)ccc4n2)CC1)O3 | 2170 nM | 66 nM | 100% | 32.9 nM | – | – |
| Cc1ccc2c3c(ccc2n1)OC[C@H](CN1CCN(c2ccc4cc([N+](=O)[O-])ccc4n2)CC1)O3 | 294 nM | – | 79% | – | 9 | – |
| Cc1ccc2c3c(ccc2n1)OC[C@H](CN1CCN(c2ccc4cc(Cl)ccc4n2)CC1)O3 | 781 nM | 0.88 nM | 62% | – | – | – |
| Cc1ccc2c3c(ccc2n1)OC[C@H](CN1CCN(c2ccc4ccccc4n2)C[C@@H]1C)O3 | 1900 nM | 10.3 nM | 76.5% | – | – | – |

Further lines, with some results ahead:

| IC50 [1] | Ki [2] | Imax [3] | Ki [4] | Ratio Ki [6] | Compound | IC50 [5] |
| --- | --- | --- | --- | --- | --- | --- |
| 156 nM | 12.7 nM | 96% | – | – | Cc1ccc2c3c(ccc2n1)OC[C@H](CN1CCN(c2ccc4cc(Br)ccc4n2)CC1)O3 | – |
| 117 nM | – | 85% | – | – | Cc1ccc2c3c(ccc2n1)OC[C@H](CN1CCN(c2ccc4ccccc4n2)C[C@H]1C)O3 | – |
| 70 nM | 7.4 nM | 58% | 6.8 nM | – | Cc1ccc2c3c(ccc2n1)OC[C@H](CN1CCCN(c2ccc4ccccc4n2)CC1)O3 | – |
| 58 nM | – | 53% | 2 nM | – | Cc1ccc2c3c(ccc2n1)OC[C@H](CN1CCCN(c2ccc4cc(C#N)ccc4n2)CC1)O3 | – |
| 70 nM | 3.9 nM | 74% | 1.5 nM | – | Cc1ccc2c3c(ccc2n1)OC[C@H](CN1CCCN(c2ccc4cc(F)ccc4n2)CC1)O3 | – |
| 180 nM | 89.6 nM | 92% | 2.8 nM | – | Cc1ccc2c3c(ccc2n1)OC[C@H](CN1CCN(c2ccc4cc(C#N)ccc4n2)C[C@H]1C)O3 | – |
| 164 nM | 17 nM | 100% | – | – | Cc1ccc2c3c(ccc2n1)OC[C@H](CN1CCN(c2ccc4cc(C(N)=O)ccc4n2)CC1)O3 | – |
